We go through five compounds from PMC12015262 (Nature Communications, 2025).

The nature of data set [1]: Pharmacokinetic study, intravenous, male CD-1 mice. In kind it is in vivo.
Data set [2] concerns the target human endothelin type B receptor (ETB), in membranes of CHO cells (human) (UniProt P24530). Briefly: radioligand binding.
The target in data set [3] is T1, human recombinant ETAR (Homo sapiens, UniProt P25101).
T1 sequence (P25101 21-427): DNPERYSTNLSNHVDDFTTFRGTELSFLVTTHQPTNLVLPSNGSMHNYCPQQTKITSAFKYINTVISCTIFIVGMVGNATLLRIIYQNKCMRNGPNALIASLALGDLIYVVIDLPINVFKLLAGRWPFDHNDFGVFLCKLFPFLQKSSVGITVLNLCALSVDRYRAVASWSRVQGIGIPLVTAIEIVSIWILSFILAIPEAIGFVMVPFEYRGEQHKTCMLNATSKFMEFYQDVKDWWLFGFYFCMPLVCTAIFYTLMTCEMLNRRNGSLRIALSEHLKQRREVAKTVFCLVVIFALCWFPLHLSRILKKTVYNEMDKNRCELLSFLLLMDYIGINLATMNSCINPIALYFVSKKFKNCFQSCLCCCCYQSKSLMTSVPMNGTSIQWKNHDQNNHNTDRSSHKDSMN
To be noted: competition binding.

The conditions of data set [4]: human, s9.
For data set [5] the following is noted: mouse, s9.
Data set [6] has as its system wild-type ETB. To be noted: previous study; cited from earlier work.
The target in data set [7] is T2, recombinant human ETB receptor (Homo sapiens, UniProt P24530).
T2 sequence (P24530 27-442): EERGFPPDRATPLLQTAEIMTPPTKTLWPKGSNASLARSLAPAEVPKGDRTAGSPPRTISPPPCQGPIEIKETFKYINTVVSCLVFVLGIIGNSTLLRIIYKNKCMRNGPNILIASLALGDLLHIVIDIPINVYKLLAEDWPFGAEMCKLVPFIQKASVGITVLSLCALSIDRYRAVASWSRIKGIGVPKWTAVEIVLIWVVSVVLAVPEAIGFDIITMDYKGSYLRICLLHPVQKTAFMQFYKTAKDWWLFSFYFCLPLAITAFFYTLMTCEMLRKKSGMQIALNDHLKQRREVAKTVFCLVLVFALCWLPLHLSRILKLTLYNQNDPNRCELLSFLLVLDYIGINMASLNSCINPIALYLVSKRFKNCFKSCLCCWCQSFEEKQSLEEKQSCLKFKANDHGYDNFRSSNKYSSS
In kind it is binding. To be noted: Discussion.

Where two headings read alike, the source gives them in different places. Where a SMILES comes first, the peptide text is derived from it. Bridges are numbered along the chain shown (N, C = ends). Some results are limits rather than exact numbers.

As to `CCCC[C@@H](NC(=O)[C@@H](Cc1cn(C(=O)OC)c2ccccc12)NC(=O)[C@H](CC(C)(C)C)NC(=O)N1[C@H](C)CCC[C@@H]1C)C(=O)O` [BQ-788, Dmpc-γ-MeLeul-D-Trp(1-CO2CH3)-D-Nle-OH, reference compound], in data set [1] (same experiment, IV, mice), the “half-life compared with RES-701-3” value was “nearly tenfold lower half-life”.
The compound RES-701-3 T6E (peptide) registered a fold reduction of affinity against RES-701-3 in data set [2] of 50 fold.
With `C[C@@H](O)[C@@H]1NC(=O)CNC(=O)[C@H](Cc2c[nH]cn2)NC(=O)[C@H](Cc2c[nH]c3ccccc23)NC(=O)[C@H](CC(N)=O)NC(=O)CNC(=O)C[C@@H](C(=O)N[C@@H](Cc2c[nH]c3ccccc23)C(=O)N[C@@H](Cc2ccccc2)C(=O)N[C@@H](Cc2ccccc2)C(=O)N[C@@H](CC(N)=O)C(=O)N[C@@H](Cc2ccc(O)cc2)C(=O)N[C@@H](Cc2ccc(O)cc2)C(=O)N[C@@H](Cc2c[nH]c3ccccc23)C(=O)O)NC(=O)[C@@H]2CCCN2C(=O)[C@H](CO)NC1=O` [RES-701-3] (GNWHGTSPDWFFNYYW-OH; lactam N-9 (inferred)), the “activity against ETA” value in data set [3] is on record as “no activity”. The half-life (as a rule, how long it takes for the measured level to halve) in data set [1] (mouse, in vivo, iv, 3 mg/kg, t1/2, 3 mg/kg IV, male CD-1 mice) was over 6 h; in data set [4] it was over 6 h; in data set [5] it was over 6 h.
Take `COc1ccccc1Oc1c(NS(=O)(=O)c2ccc(C(C)(C)C)cc2)nc(-c2ncccn2)nc1OCCO` [Bosentan]: the “effect on receptor activation level of wild-type ETB” value in data set [6] is listed as “does not change the receptor activation level”.
For the compound `Cc1cc(C)cc(C(=O)N(C)[C@H](Cc2ccc(-c3ccccc3)cc2)C(=O)N[C@@H](Cc2c[nH]c3ccccc23)C(=O)O)c1` [IRL2500], the “selectivity for ETB (ETB/ETA)” value in data set [7] is 50 ×.
